In patent US10351548B2, “2-oxo-1,2-dihydropyridine-3-carboxamide compounds and their use as inhibitors of PDK1” (INTERNATIONAL SOCIETY FOR DRUG DEVELOPMENT S.R.L., priority 2015, dated 2019):
Where two headings read alike, the source gives them in different places.

What was measured:
[1] = test system: GSCs isolated from U87MG cells; test: GSC proliferation, MTS assay; format: cell-based, human; conditions: for IC50: Homo sapiens, U-87 MG, 168 h, seven days of treatment, MTS assay; for inhibition of GSC proliferation: starting from four days of treatment
Experimental: The U87MG cell line was obtained from the National Institute for Cancer Research of Genoa (Italy) and cultured in DMEM 10% FBS and 2 mM glutamine. To isolate GSCs, approximately 2.0×10^6 cells were suspended in 1 mL of a defined serum-free Neural Stem Cell (NSC) medium (Daniele, S., et al., Modulation of A1 and A2B adenosine receptor activity: a new strategy to sensitise glioblastoma stem cells to chemotherapy. Cell death & disease, 2014. 5(11): p. e1539). After 3-4 days of culture, the neurospheres were collected, suspended in NSC medium, dissociated into single cells, and plated for the assays. For the long-term treatment of cells, NSC or complete medium containing drugs was replaced every two to three days.
The human U87MG cells or GSCs were seeded at a density of 3×10^3 cells/well. After 24 h, the cells were treated from one to seven days with fresh growth medium containing different concentrations of SA16, SA23 or IB35. Following the treatment period, cell proliferation was determined using the MTS assay according to manufacturer's instruction. The absorbance of formazan at […] was measured in a colorimetric assay with an automated plate reader (Victor Wallac 2, Perkin Elmer). The results were calculated by subtracting the mean background from the values obtained from each evaluation and were expressed as the percentage of the control (untreated cells). Sigmoid dose-response curve was generated, from which the IC50 values were derived.
The inhibition of PDK1 has been reported as potentially effective therapeutic approach to reduce self-renewal and propagation of GSCs (Signore, M., et al., Combined PDK1 and CHK1 inhibition is required to kill glioblastoma stem-like cells in vitro and in vivo. Cell death & disease, 2014. 5(5): p. e1223). On this basis, the effects of SA16, SA23 and IB35 on GSCs, isolated from U87MG cells as previously reported, were evaluated (Daniele, S., et al., Modulation of A1 and A28 adenosine receptor activity: a new strategy to sensitise glioblastoma stem cells to chemotherapy. Cell death & disease, 2014. 5(11): p. e1539). U87MG-derived GSCs were incubated with the indicated concentrations of IB35, SA23 or SA16 for four days (FIG. 8) or seven days (FIG. 9). At the end of the treatment periods, cell proliferation was measured using the MTS assay. The data were expressed as a percentage with respect to that of untreated cells (control), which was set to 100%, and are the mean values±SEM of three independent experiments, each performed in duplicate. IC50 values after seven days of treatment were calculated from sigmoid dose-response curve (FIG. 9). The significance of the differences was determined with a one-way ANOVA with Bonferroni post-test (** p<0.01, *** p<0.001 vs. control).

[2] = test system: AKT phosphorylation at Thr308 in GSCs; test: PDK1 activity in GSCs, (T308)AKT phosphorylation ELISA; format: cell-based, human; conditions: for time of peak of inhibition of AKT phosphorylation at Thr308 / inhibition of AKT phosphorylation at Thr308: 10 μM; for inhibition of AKT phosphorylation at Thr308: 0-120 min; for inhibition at 10 µM: Homo sapiens, read-out: peak of inhibition (percentage of PDK1 inhibition)
Experimental: U87MG cells were cultured in 96-well microplates (5.000 cells/well), and treated for different times with 10 μM SA16, SA23 or IB35. At the end of the treatment period, the GSCs were centrifuged at 500×g for 3 minutes; cells were washed twice using fresh saline, and rapidly fixed with 4% (for adherent U87MG cells) or 8% (for suspension GSCs) formaldehyde to preserve activation of specific protein modification. The activity of PDK1 was assessed measuring the levels of phosphorylated AKT on Thr308, using a specific primary antibodies. The subsequent incubation with a secondary HRP-conjugated antibody and the developing solution allowed the colorimetric quantification of the levels of phosphorylated protein. The relative number of cells in each well was then determined using the Crystal-Violet assay. The results were calculated by subtracting the mean background value from the values obtained under each test condition: values were normalised to the number of cells in each well and were expressed as the percentages of the control (untreated cells) values.
The effects of the new compounds on PDK1 activity were investigated by ELISA assays also in GSCs. U87MG-derived CSCs were treated for the indicated times (0-120 min) with NSC medium containing DMSO (control), or 10 μM IIB35, SA23 or SA16. At the end of the treatment periods, the levels of AKT phosphorylation on Thr308 were evaluated using an ELISA assay, as above described. The data were expressed as the percentage of phosphorylated AKT relative to those of untreated cells (control), which were set at 100%, and were the mean values±SEM of three independent experiments performed in triplicate. The data are represented in FIG. 12. The significance of differences was performed using one-way ANOVA with Bonferroni post-test (* p<0.05, ** p<0.01, *** p<0.001 vs. control).

PI4KB (PI4K beta) = PI4KB (PI4K beta) (Homo sapiens (Human), UniProt Q9UBF8); test: IB35 kinases profiling at 100 nM (Adapta); format: biochemical; conditions: IB35 100 nM, ATP Km app
Source text: (§1) The results are reported below

CDK9/cyclin T1 = CDK9/cyclin T1 (Homo sapiens (Human), UniProt P50750); test: IB35 kinases profiling at 100 nM (Adapta); format: biochemical; conditions: IB35 100 nM, ATP Km app
Source text: as §1

CHUK (IKK alpha) = CHUK (IKK alpha) (Homo sapiens (Human), UniProt O15111); test: IB35 kinases profiling at 100 nM (Adapta); format: biochemical; conditions: IB35 100 nM, ATP Km app
Source text: as §1

PIK3CG (p110 gamma) = PIK3CG (p110 gamma) (Homo sapiens (Human), UniProt P48736); test: IB35 kinases profiling at 100 nM (Adapta); format: biochemical; conditions: IB35 100 nM, ATP Km app
Source text: as §1

CDK7/cyclin H/MNAT1 = CDK7/cyclin H/MNAT1 (Homo sapiens (Human), UniProt P50613); test: IB35 kinases profiling at 100 nM (Adapta); format: biochemical; conditions: IB35 100 nM, ATP Km app
Source text: as §1

[3] = target: PIK3CD/PIK3R1 (p110 delta/p85 alpha) (Homo sapiens (Human), UniProt O00329); test: IB35 kinases profiling at 100 nM (Adapta); format: biochemical; conditions: IB35 100 nM, ATP Km app
Source text: as §1

[4] = target: PIK3CA/PIK3R1 (p110 alpha/p85 alpha) (Homo sapiens (Human), UniProt P42336); test: IB35 kinases profiling at 100 nM (Adapta); format: biochemical; conditions: IB35 100 nM, ATP Km app
Source text: as §1

PDK1 Direct kinase = PDK1 Direct kinase (Homo sapiens (Human), UniProt O15530); test: Kinase-specific FRET-based Z'-LYTE assay against PDK1 Direct kinase; format: biochemical
Experimental: The compounds of Formula (I) and (II) were tested in the biological test named Kinase-specific Z′-LYTE® assay (Invitrogen Corporation, Life Technologies).

[5] = read-out: IC50 (nM) PDK1 direct

Sequence of CDK9/cyclin T1 (P50750 whole entry): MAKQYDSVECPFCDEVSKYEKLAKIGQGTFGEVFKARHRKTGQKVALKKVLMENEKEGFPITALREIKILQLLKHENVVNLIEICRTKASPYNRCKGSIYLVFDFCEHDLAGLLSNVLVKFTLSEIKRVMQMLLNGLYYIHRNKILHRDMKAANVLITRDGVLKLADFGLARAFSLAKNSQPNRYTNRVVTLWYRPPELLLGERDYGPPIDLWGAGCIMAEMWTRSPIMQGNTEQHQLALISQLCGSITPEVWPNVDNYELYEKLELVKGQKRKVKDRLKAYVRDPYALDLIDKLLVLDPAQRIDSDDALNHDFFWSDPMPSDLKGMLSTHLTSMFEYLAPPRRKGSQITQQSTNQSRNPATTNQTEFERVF
Sequence of CDK9/cyclin T1 (O60563 whole entry partner): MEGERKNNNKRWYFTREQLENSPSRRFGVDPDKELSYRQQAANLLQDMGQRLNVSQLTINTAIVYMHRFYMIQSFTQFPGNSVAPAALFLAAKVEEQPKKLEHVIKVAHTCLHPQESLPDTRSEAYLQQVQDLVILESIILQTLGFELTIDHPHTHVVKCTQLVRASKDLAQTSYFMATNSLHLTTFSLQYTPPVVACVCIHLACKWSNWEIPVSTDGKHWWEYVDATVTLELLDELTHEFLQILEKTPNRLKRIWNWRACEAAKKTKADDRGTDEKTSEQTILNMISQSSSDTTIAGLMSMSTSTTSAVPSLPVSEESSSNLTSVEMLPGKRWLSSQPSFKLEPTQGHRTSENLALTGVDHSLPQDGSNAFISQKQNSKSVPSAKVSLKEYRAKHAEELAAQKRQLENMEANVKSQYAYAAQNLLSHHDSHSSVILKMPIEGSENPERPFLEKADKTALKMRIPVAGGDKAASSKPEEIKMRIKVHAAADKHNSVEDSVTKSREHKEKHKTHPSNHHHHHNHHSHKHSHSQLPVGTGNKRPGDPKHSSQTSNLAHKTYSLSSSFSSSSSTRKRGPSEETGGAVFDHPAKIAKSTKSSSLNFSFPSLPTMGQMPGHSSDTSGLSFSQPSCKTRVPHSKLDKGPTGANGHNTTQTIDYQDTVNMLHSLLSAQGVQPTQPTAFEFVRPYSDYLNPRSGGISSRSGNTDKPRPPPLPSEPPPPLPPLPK
Sequence of PIK3CD/PIK3R1 (p110 delta/p85 alpha) (O00329 whole entry): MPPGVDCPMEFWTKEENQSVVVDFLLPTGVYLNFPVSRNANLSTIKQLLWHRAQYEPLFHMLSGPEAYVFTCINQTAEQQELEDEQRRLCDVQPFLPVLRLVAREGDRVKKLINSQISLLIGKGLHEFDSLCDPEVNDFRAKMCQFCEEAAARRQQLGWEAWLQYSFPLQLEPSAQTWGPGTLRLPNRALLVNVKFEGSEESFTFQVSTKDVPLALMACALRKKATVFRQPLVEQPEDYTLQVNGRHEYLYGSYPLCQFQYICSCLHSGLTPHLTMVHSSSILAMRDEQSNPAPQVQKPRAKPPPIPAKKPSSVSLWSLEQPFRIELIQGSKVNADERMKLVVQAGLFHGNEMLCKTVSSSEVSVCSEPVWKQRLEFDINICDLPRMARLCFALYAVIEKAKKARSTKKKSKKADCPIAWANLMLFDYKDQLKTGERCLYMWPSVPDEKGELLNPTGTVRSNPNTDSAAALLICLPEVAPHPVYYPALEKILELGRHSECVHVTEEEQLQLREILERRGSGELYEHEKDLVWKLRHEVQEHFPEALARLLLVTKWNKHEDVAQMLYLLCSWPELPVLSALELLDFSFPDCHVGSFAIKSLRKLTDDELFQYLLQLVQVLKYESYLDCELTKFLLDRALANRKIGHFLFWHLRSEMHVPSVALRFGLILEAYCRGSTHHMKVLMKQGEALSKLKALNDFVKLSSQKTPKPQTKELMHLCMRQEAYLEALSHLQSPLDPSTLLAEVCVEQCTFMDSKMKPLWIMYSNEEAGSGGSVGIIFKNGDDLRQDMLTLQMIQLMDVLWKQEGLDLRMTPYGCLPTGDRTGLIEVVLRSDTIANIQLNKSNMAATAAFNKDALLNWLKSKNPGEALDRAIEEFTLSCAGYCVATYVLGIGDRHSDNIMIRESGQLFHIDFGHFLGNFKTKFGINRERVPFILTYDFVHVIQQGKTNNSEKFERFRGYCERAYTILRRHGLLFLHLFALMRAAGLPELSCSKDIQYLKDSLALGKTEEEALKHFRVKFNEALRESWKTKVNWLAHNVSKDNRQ
Sequence of PIK3CD/PIK3R1 (p110 delta/p85 alpha) (P27986 whole entry partner): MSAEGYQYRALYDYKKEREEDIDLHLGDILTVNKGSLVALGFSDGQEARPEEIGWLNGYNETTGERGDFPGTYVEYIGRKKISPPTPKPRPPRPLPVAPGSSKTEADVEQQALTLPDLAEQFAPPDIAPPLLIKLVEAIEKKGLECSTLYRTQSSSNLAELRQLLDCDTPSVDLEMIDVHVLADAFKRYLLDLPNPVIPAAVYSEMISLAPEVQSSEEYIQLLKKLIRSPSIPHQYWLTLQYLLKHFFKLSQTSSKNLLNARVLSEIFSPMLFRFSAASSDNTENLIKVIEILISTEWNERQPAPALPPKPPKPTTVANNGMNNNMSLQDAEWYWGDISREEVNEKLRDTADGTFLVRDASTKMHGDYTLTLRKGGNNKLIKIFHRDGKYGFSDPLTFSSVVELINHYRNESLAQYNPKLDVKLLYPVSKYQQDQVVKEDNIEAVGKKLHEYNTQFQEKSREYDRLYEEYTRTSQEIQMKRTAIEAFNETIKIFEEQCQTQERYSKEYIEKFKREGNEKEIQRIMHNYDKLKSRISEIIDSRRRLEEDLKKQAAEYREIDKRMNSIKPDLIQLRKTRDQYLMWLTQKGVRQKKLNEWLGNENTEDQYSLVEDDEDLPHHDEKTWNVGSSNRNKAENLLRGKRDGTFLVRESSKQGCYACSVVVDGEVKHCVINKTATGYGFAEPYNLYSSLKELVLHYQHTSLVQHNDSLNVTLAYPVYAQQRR
Sequence of PI4KB (PI4K beta) (Q9UBF8 whole entry): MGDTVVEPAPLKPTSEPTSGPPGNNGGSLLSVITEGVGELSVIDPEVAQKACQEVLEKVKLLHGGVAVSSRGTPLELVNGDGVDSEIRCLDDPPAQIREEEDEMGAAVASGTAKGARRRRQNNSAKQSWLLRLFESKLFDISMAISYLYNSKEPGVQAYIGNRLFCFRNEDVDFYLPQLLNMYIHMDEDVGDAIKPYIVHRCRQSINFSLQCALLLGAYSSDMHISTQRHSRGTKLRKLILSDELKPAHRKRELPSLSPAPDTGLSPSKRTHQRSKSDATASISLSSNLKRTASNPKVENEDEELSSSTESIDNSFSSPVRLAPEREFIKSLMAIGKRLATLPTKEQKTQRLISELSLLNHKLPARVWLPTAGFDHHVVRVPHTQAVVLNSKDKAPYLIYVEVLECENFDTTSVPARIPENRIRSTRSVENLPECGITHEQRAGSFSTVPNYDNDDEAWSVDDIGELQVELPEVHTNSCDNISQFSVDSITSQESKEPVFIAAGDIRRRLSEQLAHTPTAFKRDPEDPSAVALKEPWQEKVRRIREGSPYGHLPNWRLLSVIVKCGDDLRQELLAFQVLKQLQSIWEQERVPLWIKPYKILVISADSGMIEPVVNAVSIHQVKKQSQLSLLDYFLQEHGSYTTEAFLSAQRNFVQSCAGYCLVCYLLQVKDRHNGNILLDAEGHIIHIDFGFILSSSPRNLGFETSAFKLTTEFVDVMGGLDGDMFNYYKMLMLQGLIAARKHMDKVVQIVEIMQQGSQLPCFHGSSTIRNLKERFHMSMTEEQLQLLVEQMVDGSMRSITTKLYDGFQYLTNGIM
Sequence of CDK7/cyclin H/MNAT1 (P50613 whole entry): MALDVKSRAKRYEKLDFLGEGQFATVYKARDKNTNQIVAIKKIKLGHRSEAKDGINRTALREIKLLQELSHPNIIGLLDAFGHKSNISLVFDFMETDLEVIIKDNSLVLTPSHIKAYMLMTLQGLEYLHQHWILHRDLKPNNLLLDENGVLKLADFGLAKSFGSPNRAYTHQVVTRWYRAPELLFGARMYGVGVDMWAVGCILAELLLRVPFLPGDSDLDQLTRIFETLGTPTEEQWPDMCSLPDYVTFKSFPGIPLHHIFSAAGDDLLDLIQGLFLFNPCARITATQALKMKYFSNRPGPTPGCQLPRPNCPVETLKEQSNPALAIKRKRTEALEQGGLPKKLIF
Sequence of CDK7/cyclin H/MNAT1 (P51946 whole entry partner): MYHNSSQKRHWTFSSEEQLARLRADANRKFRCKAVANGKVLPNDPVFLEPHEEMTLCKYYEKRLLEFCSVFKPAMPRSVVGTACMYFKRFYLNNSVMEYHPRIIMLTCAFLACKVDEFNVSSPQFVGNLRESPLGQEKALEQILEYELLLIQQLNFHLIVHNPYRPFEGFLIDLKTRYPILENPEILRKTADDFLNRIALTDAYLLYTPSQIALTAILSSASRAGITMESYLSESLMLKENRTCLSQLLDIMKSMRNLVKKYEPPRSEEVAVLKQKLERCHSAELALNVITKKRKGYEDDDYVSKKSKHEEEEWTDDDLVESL
Sequence of CDK7/cyclin H/MNAT1 (P51948 whole entry partner): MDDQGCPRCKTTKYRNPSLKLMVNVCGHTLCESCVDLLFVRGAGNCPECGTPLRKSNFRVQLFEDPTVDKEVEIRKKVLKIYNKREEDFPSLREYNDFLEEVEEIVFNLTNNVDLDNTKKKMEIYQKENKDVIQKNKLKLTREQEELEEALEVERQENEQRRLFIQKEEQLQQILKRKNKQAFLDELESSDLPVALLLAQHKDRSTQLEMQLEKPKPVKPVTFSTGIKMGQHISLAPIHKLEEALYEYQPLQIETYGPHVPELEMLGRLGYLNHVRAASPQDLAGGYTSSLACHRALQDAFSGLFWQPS

SMILES: O=C(CNC(=O)c1cccn(Cc2ccc(F)c(F)c2)c1=O)Nc1ccc2c(c1)/C(=C/c1cnc[nH]1)C(=O)N2 [IB35, (Z)—N-(2-((3-((1H-imidazol-5-yl)methylene)-2-oxoindolin-5-yl)amino)-2-oxoethyl)-1-(3,4-difluorobenzyl)-2-oxo-1,2-dihydro pyridine-3-carboxamide]
- IC50 [1]: 3.36 ± 0.4 nM
- inhibition of GSC proliferation [1]: significant inhibition
- time of peak of inhibition of AKT phosphorylation at Thr308 [2]: 120 min
- inhibition of AKT phosphorylation at Thr308 [2]: significantly inhibited
- inhibition at 10 µM [2]: 80.4 ± 3.7%
- inhibition at 0.1 µM (PI4KB (PI4K beta); read-out: % Inhibition 1): -3%
- inhibition at 0.1 µM (PI4KB (PI4K beta); read-out: % Inhibition 2): 12%
- inhibition at 0.1 µM (PI4KB (PI4K beta); read-out: % Inhibition Avg): 4%
- inhibition at 0.1 µM (CDK9/cyclin T1; read-out: % Inhibition 1): 7%
- inhibition at 0.1 µM (CDK9/cyclin T1; read-out: % Inhibition 2): 5%
- inhibition at 0.1 µM (CDK9/cyclin T1; read-out: % Inhibition Avg): 6%
- inhibition at 0.1 µM (CHUK (IKK alpha); read-out: % Inhibition 1): -2%
- inhibition at 0.1 µM (CHUK (IKK alpha); read-out: % Inhibition 2): 7%
- inhibition at 0.1 µM (CHUK (IKK alpha); read-out: % Inhibition Avg): 3%
- inhibition at 0.1 µM (PIK3CG (p110 gamma); read-out: % Inhibition 1): 6%
- inhibition at 0.1 µM (PIK3CG (p110 gamma); read-out: % Inhibition 2): -1%
- inhibition at 0.1 µM (PIK3CG (p110 gamma); read-out: % Inhibition Avg): 2%
- inhibition at 0.1 µM (CDK7/cyclin H/MNAT1; read-out: % Inhibition 1): 2%
- inhibition at 0.1 µM (CDK7/cyclin H/MNAT1; read-out: % Inhibition 2): -1%
- inhibition at 0.1 µM (CDK7/cyclin H/MNAT1; read-out: % Inhibition Avg): 1%
- inhibition at 0.1 µM ([3]; read-out: % Inhibition 1): 13%
- inhibition at 0.1 µM ([3]; read-out: % Inhibition 2): 21%
- inhibition at 0.1 µM ([3]; read-out: % Inhibition Avg): 17%
- inhibition at 0.1 µM ([4]; read-out: % Inhibition 1): 16%
- inhibition at 0.1 µM ([4]; read-out: % Inhibition 2): 24%
- inhibition at 0.1 µM ([4]; read-out: % Inhibition Avg): 20%
- inhibition at 10 µM (PDK1 Direct kinase): > 50%
- IC50 (PDK1 Direct kinase; [5]): 112 nM
- IC50 (PDK1 Direct kinase; read-out: PDK1 IC50): 112 nM

SMILES: O=C1Nc2ccc(NC(=O)[C@H](NC(=O)c3cccn(Cc4ccc(F)c(F)c4)c3=O)c3ccccc3)cc2/C1=C/c1ncc[nH]1 [SA23, (Z)—(R)—N-(2-((3-((1H-imidazol-2-yl)methylene)-2-oxoindolin-5-yl)amino)-2-oxo-1-phenylethyl)-1-(3,4-difluorobenzyl)-2-oxo-1,2-dihydropyridine-3-carboxamide]
- IC50 [1]: 0.3 ± 0.04 nM
- inhibition of GSC proliferation [1]: significant inhibition
- time of peak of inhibition of AKT phosphorylation at Thr308 [2]: 120 min
- inhibition of AKT phosphorylation at Thr308 [2]: significantly inhibited
- inhibition at 10 µM [2]: 69 ± 4.5%
- inhibition at 10 µM (PDK1 Direct kinase): > 50%
- IC50 (PDK1 Direct kinase; [5]): 1520 nM
- IC50 (PDK1 Direct kinase; read-out: PDK1 IC50): 1520 nM
